Laboratory results reported in publication PMC6458995, “MAP4K4 Inhibition Promotes Survival of Human Stem Cell-Derived Cardiomyocytes and Reduces Infarct Size In Vivo” (Cell Stem Cell, 2019).
pIC50: −log10 of the molar value.

What was measured:
vCor.4U cells = test: Mitochondrial function (Seahorse XFe24, OCR and ECAR); assay type: cell-based, human; details: menadione 15 μM; 2 h
Protocol: Mitochondrial function in hiPSC-CMs was determined using a Seahorse XFe24 Analyzer. vCor.4U cells (60,000 well^-1) were transferred to 0.1% gelatin-coated XF24 plates and maintained for 5 d, as described above. On day 6, DMX-5804 was added 45 min prior to challenge with menadione for 2 h. The medium was replaced 1 hr before the assay, using bicarbonate-free Seahorse assay medium (8.3 g L^-1 DMEM Base (Sigma-Aldrich), 10 mM glucose, 2 mM L-alanyl-L-glutamine dipeptide (Glutamax-1, GIBCO), 1 mM sodium pyruvate (GIBCO), pH 7.4). Cells were maintained at 37°C without supplemental CO2 starting 1 hr before the assay (IL10 incubator, VWR). For each state measured, three assay cycles were performed (4 min mixing, 2 min wait, and 2 min measurement periods, with readings every 15 s). The basal oxygen consumption rate (OCR) and extracellular acidification rate (ECAR) were determined, followed by sequential injection of 1 μM oligomycin A (Abcam) to inhibit ATP synthase, 0.5 μM […] (FCCP; Abcam) to uncouple oxidative phosphorylation, and 1 μM antimycin A/rotenone (Sigma, Abcam) to inhibit mitochondrial complex III and I. For each condition, 12 wells were tested, comprising 4 independent experiments.

vCor.4U hiPSC-CMs = test: Calcium transients (FLIPR Tetra, EarlyTox Cardiotoxicity dye); assay type: cell-based, human; details: Homo sapiens; calcium cycling; vCor.4U; 24 h; read-out: half-maximal loss of peak area and peak height
Protocol: Calcium transients in hiPSC-CMs were assessed using FLIPR Tetra instrumentation and Early Tox Cardiotoxicity kits (Molecular Devices). vCor.4U cells were subjected to graded concentrations of menadione and the MAP4K4 inhibitors as described for the viability assays. Compound concentrations and time course are denoted in the figure and figure legend. Vehicle controls were used throughout. Cells were incubated for 2-3 hr at 37°C in 5% CO2, using 3 μL well^-1 of EarlyTox Cardiotoxicity Kit concentrate as the fluorescent calcium indicator dye. Plates were then removed from the incubator and allowed to reach room temperature. Intracellular calcium oscillations were monitored using a FLIPR Tetra system with excitation LED bank 470-495 nm and emission filter set 515-575 nm (Molecular Devices). Fluorescence intensity signals were acquired for 600 reads at 1.2 ms intervals. Beat frequency, median peak height, median peak width and total peak area were calculated and compared with the baseline control and with menadione alone. Protection of calcium cycling by DMX-4804 was confirmed in 3 independent experiments with overlapping conditions, and results are shown for a full dose-response study, analyzing 4 wells for each point.

vCor.4U cardiomyocytes = test: CellTiter-Glo viability after oxidative stress (H2O2 or menadione); assay type: cell-based, human; details: vCor.4U; 400 μM H2O2 1 h after compound; 10 μM
Protocol: vCor.4U cardiomyocytes were cultured, except where noted, on white (viability) or black (FLIPR) clear-bottom 384-well plates, treated for 1 hr with […] fibronectin (Sigma-Aldrich). To minimize batch to batch variation, thawed cells first were transferred from cryo-vials into sterile 250 mL flasks containing pre-warmed vCor.4U maintenance medium, for 3-5 d. The cells were then plated at 1000 well^-1 for viability assays or 5000 cells well^-1 for FLIPR experiments, all in 40 μl well^-1 of the maintenance medium. Cells were cultured in Axiogenesis complete medium followed by incomplete medium, were subjected to oxidative stress ± test compounds on day 3, and were assayed on day 4 (Figures 4D and 4E). Alternatively, complete medium was replaced on day 2 of culture with 40 μl of DMEM high Glucose (no FCS or pyruvate), followed by removal and replacement of 20 μl every 2 d for 10 d (Figures 4A–4C).
H2O2, menadione (Sigma-Aldrich), doxorubicin (Calbiochem), and C2-ceramide (N-acetyl-D-sphingosine) were used at the indicated concentrations. MAP4K4 inhibitors were serially diluted in DMSO, transferred to an intermediate plate using assay medium as a diluting agent, and added at a final concentration of 0.1% DMSO. MAP4K4 inhibitors were added to cultured cardiomyocytes 1 hr before the cell death inducers, except where noted, and remained present for the duration of the experiment.
For cell-based dose-response experiments, MAP4K4 inhibitors were prepared in 96-well polypropylene plates as serial dilutions in DMSO of 10 mM stock solutions. To a sterile 96-well intermediate plate, 1 μl of each well was added to 99 μl of medium, the samples were mixed, and 5 μl well^-1 from the intermediate plate were transferred to the cultured cells (final concentration, 0.1% DMSO; final top concentration of inhibitor, 10 μM). Assay plates were gently centrifuged then incubated for 1 hr at 37°C. The death triggers menadione, H2O2 and doxorubicin were prepared fresh on the day of treatment at 10x the final concentrations and 5 μl well^-1 were added as appropriate. Assay plates were gently centrifuged and then incubated at 37°C for the duration of treatment.
Assay plates were removed from the incubator, allowed to reach room temperature, inoculated with 20 μl well^-1 CTG reagent (Promega), and gently agitated for 30 min. Prior to adding CTG, 2 μl well^-1 of the culture medium was removed and placed into a white 384-well low volume plate for measurement of cardiac troponin release by AlphaLISA (below). Luminescence due to ATP, proportional to cell number, was captured on a PHERAstar Plus microplate reader (BMG Labtech). Normalized values were plotted against the log concentration of death signal or inhibitor, and a 4-parameter fit was used to identify IC50 and EC50, respectively.

recombinant human MAP4K4 = molecular target: T1, recombinant human MAP4K4 (Homo sapiens, UniProt O95819); test: In vitro MAP4K4 kinase activity assay (HTRF Transcreener ADP); assay type: biochemical; details: MAP4K4; HTRF Transcreener ADP assay; read-out: pIC50 (converted)
T1 construct: Human MAP4K4 kinase domain (aa 1-328); purchased Invitrogen PV3687
Protocol: MAP4K4 kinase activity was monitored using the CisBio HTRF Transcreener ADP assay, a competitive immunoassay with a reproducible Z’ > 0.6. In the detection step, endogenous ADP and d2-labeled ADP compete for binding an anti-ADP monoclonal antibody labeled with Eu^3+ cryptate. […] Assays were run in Greiner low volume plates with a final reaction volume of 10 μl. Percent inhibition was calculated from 100% activity of MAP4K4 (DMSO only) and 0% activity (no enzyme added). Data were either reported as % inhibition at a single dose or as pIC50 values derived from dose response curves (pIC50 = -log[IC50]).

T1 sequence (O95819 1-328): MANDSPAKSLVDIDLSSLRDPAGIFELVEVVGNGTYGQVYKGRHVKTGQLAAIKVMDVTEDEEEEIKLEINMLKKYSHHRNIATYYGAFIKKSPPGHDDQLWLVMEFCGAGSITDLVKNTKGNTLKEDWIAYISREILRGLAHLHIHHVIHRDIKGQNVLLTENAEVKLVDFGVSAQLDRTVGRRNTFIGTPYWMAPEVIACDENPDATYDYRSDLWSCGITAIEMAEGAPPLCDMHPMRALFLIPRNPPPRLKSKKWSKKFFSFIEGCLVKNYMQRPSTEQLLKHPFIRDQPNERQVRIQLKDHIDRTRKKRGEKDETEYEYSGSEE

SMILES: CC1=CC(=O)c2ccccc2C1=O [menadione]
- Maximum oxidative capacity, of control levels (vCor.4U cells): 15%
- pIC50 (vCor.4U hiPSC-CMs): 4.80

SMILES: COCCc1ccc(OCC(O)CNC(C)C)cc1 (centres unmarked) [metoprolol]
- human cardiomyocyte survival (rescue of viability) (vCor.4U cardiomyocytes): promoted

SMILES: O=c1[nH]cnc2[nH]cc(-c3ccccc3)c12 [DMX-4850]
- IC50 (recombinant human MAP4K4): 0.794 µM

SMILES: O=c1[nH]cnc2c1ccn2-c1ccccc1 [DMX-4815]
- IC50 (recombinant human MAP4K4): 7.94 µM
